Data taken from article PMC5218480 (PLoS ONE, 2017).

Tested on: MV-4-11 cells
Assay: Gene expression microarray analysis (Affymetrix PrimeView) and GSEA
Type: cell-based, human
Parameters: RFU PODN (11730768_x_at) / Fold change /veh PODN (11730768_x_at) / RFU LINC00158 (11744669_a_at) / Fold change /veh LINC00158 (11744669_a_at) / RFU DUSP10 (11751237_a_at) / Fold change /veh DUSP10 (11751237_a_at) / RFU ID3 (11757404_x_at) / Fold change /veh ID3 (11757404_x_at) / RFU PLEKHG5 (11737974_s_at) / Fold change /veh PLEKHG5 (11737974_s_at) / RFU LRRC4B (11730491_at) / Fold change /veh LRRC4B (11730491_at) / RFU GIMAP4 (11747438_a_at) / Fold change /veh GIMAP4 (11747438_a_at) / RFU KRT8 (11758183_x_at) / Fold change /veh KRT8 (11758183_x_at) / RFU CNN1 (11734310_a_at) / Fold change /veh CNN1 (11734310_a_at) / RFU VPS37D (11726825_at) / Fold change /veh VPS37D (11726825_at) / RFU C10orf10 (11716522_x_at) / Fold change /veh C10orf10 (11716522_x_at) / RFU KIR2DL2 /// KIR2DL4 /// KIR2DL5A /// KIR2DL5B /// KIR2DS1 /// KIR2DS2 /// KIR2DS3 /// KIR2DS4 /// KIR3DL3 /// KIR3DL3 /// KIR3DS1 (11738374_at) / Fold change /veh KIR2DL2 /// KIR2DL4 /// KIR2DL5A /// KIR2DL5B /// KIR2DS1 /// KIR2DS2 /// KIR2DS3 /// KIR2DS4 /// KIR3DL3 /// KIR3DL3 /// KIR3DS1 (11738374_at) / RFU C1QL1 (11718748_at) / Fold change /veh C1QL1 (11718748_at) / RFU TMPRSS4 (11747572_a_at) / Fold change /veh TMPRSS4 (11747572_a_at) / RFU HAMP (11756126_x_at) / Fold change /veh HAMP (11756126_x_at) / RFU RNFT2 (11725882_a_at) / Fold change /veh RNFT2 (11725882_a_at) / RFU NR4A2 (11747474_a_at) / Fold change /veh NR4A2 (11747474_a_at) / RFU ABCC12 (11746883_a_at) / Fold change /veh ABCC12 (11746883_a_at) / RFU TMEM136 (11760407_x_at) / Fold change /veh TMEM136 (11760407_x_at) / RFU CLDN22 /// WWC2 (11732394_at) / Fold change /veh CLDN22 /// WWC2 (11732394_at) / RFU HLA-DPB1 (11760878_x_at) / Fold change /veh HLA-DPB1 (11760878_x_at) / RFU SPINT1 (11716480_a_at) / Fold change /veh SPINT1 (11716480_a_at) / RFU GAP43 (11754022_s_at) / Fold change /veh GAP43 (11754022_s_at) / RFU A4GNT (11735810_at) / Fold change /veh A4GNT (11735810_at) / RFU PRB3 (11715151_x_at) / Fold change /veh PRB3 (11715151_x_at) / RFU TUBB4B (11761932_at) / Fold change /veh TUBB4B (11761932_at) / RFU CAPN14 (11732068_a_at) / Fold change /veh CAPN14 (11732068_a_at) / RFU TMCC2 (11721928_a_at) / Fold change /veh TMCC2 (11721928_a_at) / RFU IRGQ (11745062_a_at) / Fold change /veh IRGQ (11745062_a_at) / RFU FAM174B (11720279_a_at) / Fold change /veh FAM174B (11720279_a_at) / RFU TMPRSS4 (11748680_a_at) / Fold change /veh TMPRSS4 (11748680_a_at) / RFU FAM212B (11763350_a_at) / Fold change /veh FAM212B (11763350_a_at) / RFU PLEKHG5 (11743358_a_at) / Fold change /veh PLEKHG5 (11743358_a_at) / RFU ZSCAN30 (11745921_a_at) / Fold change /veh ZSCAN30 (11745921_a_at) / RFU CMKLR1 (11741424_a_at) / Fold change /veh CMKLR1 (11741424_a_at) / RFU LOC101060620 /// MAPK8IP1 (11723275_at) / Fold change /veh LOC101060620 /// MAPK8IP1 (11723275_at) / RFU SPTSSB (11747773_x_at) / Fold change /veh SPTSSB (11747773_x_at) / RFU PRSS12 (11739890_at) / Fold change /veh PRSS12 (11739890_at) / RFU BIN1 (11741810_x_at) / Fold change /veh BIN1 (11741810_x_at) / RFU WNT11 (11732464_a_at) / Fold change /veh WNT11 (11732464_a_at) / RFU C10orf10 (11716521_a_at) / Fold change /veh C10orf10 (11716521_a_at) / RFU C5orf56 (11738089_at) / Fold change /veh C5orf56 (11738089_at) / RFU CYB561 (11721691_x_at) / Fold change /veh CYB561 (11721691_x_at) / RFU ANKRD19P (11752326_a_at) / Fold change /veh ANKRD19P (11752326_a_at) / RFU OR2T12 /// OR2T33 /// OR2T8 (11738714_s_at) / Fold change /veh OR2T12 /// OR2T33 /// OR2T8 (11738714_s_at) / RFU VCAN (11748164_a_at) / Fold change /veh VCAN (11748164_a_at) / RFU JSRP1 (11732532_at) / Fold change /veh JSRP1 (11732532_at) / RFU KRTAP10-11 (11738290_x_at) / Fold change /veh KRTAP10-11 (11738290_x_at) / RFU MYO3A (11730013_a_at) / Fold change /veh MYO3A (11730013_a_at) / RFU EBF3 (11725865_a_at) / Fold change /veh EBF3 (11725865_a_at) / RFU CAMK2N1 (11719241_x_at) / Fold change /veh CAMK2N1 (11719241_x_at) / RFU C5orf56 (11738088_a_at) / Fold change /veh C5orf56 (11738088_a_at) / RFU OLFML3 (11715873_a_at) / Fold change /veh OLFML3 (11715873_a_at) / RFU LOC100653217 /// NTM (11731650_a_at) / Fold change /veh LOC100653217 /// NTM (11731650_a_at) / RFU MAPK11 (11762145_a_at) / Fold change /veh MAPK11 (11762145_a_at) / RFU FIZ1 (11724087_x_at) / Fold change /veh FIZ1 (11724087_x_at) / RFU OASL (11726364_x_at) / Fold change /veh OASL (11726364_x_at) / RFU SOX15 (11748057_x_at) / Fold change /veh SOX15 (11748057_x_at) / RFU CD79A (11719716_a_at) / Fold change /veh CD79A (11719716_a_at) / RFU HIST1H1D (11736915_at) / Fold change /veh HIST1H1D (11736915_at) / RFU CASKIN2 (11723855_a_at) / Fold change /veh CASKIN2 (11723855_a_at) / RFU LOC730098 (11760151_x_at) / Fold change /veh LOC730098 (11760151_x_at) / RFU OR4N2 (11742367_at) / Fold change /veh OR4N2 (11742367_at) / RFU PRRT2 (11749266_a_at) / Fold change /veh PRRT2 (11749266_a_at) / RFU SNX32 (11753110_a_at) / Fold change /veh SNX32 (11753110_a_at) / RFU CDHR5 (11726645_a_at) / Fold change /veh CDHR5 (11726645_a_at) / RFU RCAN1 (11760418_a_at) / Fold change /veh RCAN1 (11760418_a_at) / RFU FAM167A (11723789_a_at) / Fold change /veh FAM167A (11723789_a_at) / RFU FAM26E (11764081_at) / Fold change /veh FAM26E (11764081_at) / RFU ISYNA1 (11749810_s_at) / Fold change /veh ISYNA1 (11749810_s_at) / RFU ACY1 (11761880_at) / Fold change /veh ACY1 (11761880_at) / RFU 11764098_at / Fold change /veh 11764098_at / RFU SAMD14 (11745864_x_at) / Fold change /veh SAMD14 (11745864_x_at) / RFU NPB (11741838_a_at) / Fold change /veh NPB (11741838_a_at) / RFU TMPRSS6 (11731388_a_at) / Fold change /veh TMPRSS6 (11731388_a_at) / RFU KRTAP10-2 (11738614_at) / Fold change /veh KRTAP10-2 (11738614_at) / RFU ARHGAP8 /// PRR5-ARHGAP8 (11727945_x_at) / Fold change /veh ARHGAP8 /// PRR5-ARHGAP8 (11727945_x_at) / RFU KRTAP5-7 /// NADSYN1 (11734609_at) / Fold change /veh KRTAP5-7 /// NADSYN1 (11734609_at) / RFU RASL12 (11751679_a_at) / Fold change /veh RASL12 (11751679_a_at) / RFU CDKN2B (11736163_a_at) / Fold change /veh CDKN2B (11736163_a_at) / RFU PRF1 (11729649_at) / Fold change /veh PRF1 (11729649_at) / RFU, ZNF638 /// ZNF638-IT1 / Fold change vs veh, ZNF638 /// ZNF638-IT1 / RFU, PANK3 / Fold change vs veh, PANK3 / RFU, SH3YL1 / Fold change vs veh, SH3YL1 / RFU, ZEB2 / Fold change vs veh, ZEB2 / RFU, NRIP1 / Fold change vs veh, NRIP1 / RFU, PTTG1IP / Fold change vs veh, PTTG1IP / RFU, CAPN2 / Fold change vs veh, CAPN2 / RFU, MED14 / Fold change vs veh, MED14 / RFU, SNORA58 / Fold change vs veh, SNORA58 / RFU, C1orf63 / Fold change vs veh, C1orf63 / RFU, LRRFIP1 / Fold change vs veh, LRRFIP1 / RFU, NDUFAF7 / Fold change vs veh, NDUFAF7 / RFU, SLC12A2 / Fold change vs veh, SLC12A2 / RFU, IBTK / Fold change vs veh, IBTK / RFU, ESF1 / Fold change vs veh, ESF1 / Fold change vs veh, TMEM50B / RFU, TAOK1 / Fold change vs veh, TAOK1 / RFU, ACBD3 / Fold change vs veh, ACBD3 / RFU, TMA16 / Fold change vs veh, TMA16 / RFU, RWDD3 / Fold change vs veh, RWDD3 / RFU, BCAT1 / Fold change vs veh, BCAT1 / RFU, EDEM3 / Fold change vs veh, EDEM3 / RFU, TMEM33 / Fold change vs veh, TMEM33 / RFU, WDR75 / Fold change vs veh, WDR75 / RFU, AHCTF1 / Fold change vs veh, AHCTF1 / RFU, TFRC / Fold change vs veh, TFRC / RFU, ZDHHC17 / Fold change vs veh, ZDHHC17 / RFU, NOM1 / Fold change vs veh, NOM1 / RFU, ARL8B / Fold change vs veh, ARL8B / RFU, ZBTB11 / Fold change vs veh, ZBTB11 / RFU, TAMM41 / Fold change vs veh, TAMM41 / RFU, KIAA1704 /// LOC100996395 / Fold change vs veh, KIAA1704 /// LOC100996395 / RFU, ING1 / Fold change vs veh, ING1 / RFU, TRMT61B / Fold change vs veh, TRMT61B / RFU, FUBP3 / Fold change vs veh, FUBP3 / RFU, TP53 / Fold change vs veh, TP53 / RFU, TNKS2 / Fold change vs veh, TNKS2 / RFU, ZFP14 / Fold change vs veh, ZFP14 / RFU, ACTR2 / Fold change vs veh, ACTR2 / RFU, PPP3R1 / Fold change vs veh, PPP3R1 / RFU, PIK3R1 / Fold change vs veh, PIK3R1 / RFU, HNRNPA1 / Fold change vs veh, HNRNPA1 / RFU, RNF170 / Fold change vs veh, RNF170 / RFU, ZNF28 / Fold change vs veh, ZNF28 / RFU, RNGTT / Fold change vs veh, RNGTT / RFU, OGT / Fold change vs veh, OGT / RFU, BRD1 / Fold change vs veh, BRD1 / RFU, MARS / Fold change vs veh, MARS / RFU, ZNF655 / Fold change vs veh, ZNF655 / RFU, FAHD1 / Fold change vs veh, FAHD1 / RFU, BDP1 / Fold change vs veh, BDP1 / RFU, LRRCC1 / Fold change vs veh, LRRCC1 / RFU, ARID1A / Fold change vs veh, ARID1A / RFU, ZNF146 / Fold change vs veh, ZNF146 / RFU, ZNF330 / Fold change vs veh, ZNF330 / RFU, GPN3 / Fold change vs veh, GPN3 / RFU, C9orf123 / Fold change vs veh, C9orf123 / RFU, N4BP2L2 / Fold change vs veh, N4BP2L2 / RFU, ARFIP1 / Fold change vs veh, ARFIP1 / RFU, FAM179B / Fold change vs veh, FAM179B / RFU, BCL10 / Fold change vs veh, BCL10 / RFU, UHRF1BP1L / Fold change vs veh, UHRF1BP1L / RFU, BET1 / Fold change vs veh, BET1 / RFU, CNOT2 / Fold change vs veh, CNOT2 / RFU, ZNF268 / Fold change vs veh, ZNF268 / Fold change vs veh, ZNF507 / RFU, DGCR2 / Fold change vs veh, DGCR2 / RFU, WDSUB1 / Fold change vs veh, WDSUB1 / Fold change vs veh, HSP90B1 /// MIR3652 / RFU, ADSS / Fold change vs veh, ADSS / RFU, GK / Fold change vs veh, GK / RFU, ZNF148 / Fold change vs veh, ZNF148 / RFU, TAF9 / Fold change vs veh, TAF9 / RFU, SLC1A5 / Fold change vs veh, SLC1A5 / RFU, SLMO2 / Fold change vs veh, SLMO2 / RFU, ABCC4 / Fold change vs veh, ABCC4 / RFU, LOC101060439 /// RAP1B / Fold change vs veh, LOC101060439 /// RAP1B / RFU, RFX7 / Fold change vs veh, RFX7 / RFU, GTPBP10 / Fold change vs veh, GTPBP10 / RFU, CNEP1R1 / Fold change vs veh, CNEP1R1 / RFU, BIVM-ERCC5 /// ERCC5 / Fold change vs veh, BIVM-ERCC5 /// ERCC5 / RFU, ILF3 / Fold change vs veh, ILF3 / RFU 11762660_at / Fold change /veh 11762660_at / RFU VCAN (11757783_s_at) / Fold change /veh VCAN (11757783_s_at) / RFU DDX43 (11728927_at) / Fold change /veh DDX43 (11728927_at) / RFU KRT8 (11758188_x_at) / Fold change /veh KRT8 (11758188_x_at) / RFU NKD1 (11759106_at) / Fold change /veh NKD1 (11759106_at) / RFU SRD5A1 (11742802_a_at) / Fold change /veh SRD5A1 (11742802_a_at) / RFU TPSAB1 /// TPSB2 (11721975_s_at) / Fold change /veh TPSAB1 /// TPSB2 (11721975_s_at) / RFU GSTM3 (11746129_a_at) / Fold change /veh GSTM3 (11746129_a_at) / RFU IL23R (11737362_x_at) / Fold change /veh IL23R (11737362_x_at) / RFU TMEM51 (11727254_a_at) / Fold change /veh TMEM51 (11727254_a_at) / RFU PIWIL2 (11732686_x_at) / Fold change /veh PIWIL2 (11732686_x_at) / RFU ORM1 (11744905_x_at) / Fold change /veh ORM1 (11744905_x_at) / RFU CCDC152 (11743942_at) / Fold change /veh CCDC152 (11743942_at) / RFU ECM1 (11717891_a_at) / Fold change /veh ECM1 (11717891_a_at) / RFU IL23R (11748794_a_at) / Fold change /veh IL23R (11748794_a_at) / RFU TNFAIP8L3 (11732012_x_at) / Fold change /veh TNFAIP8L3 (11732012_x_at) / RFU MBOAT4 (11741988_at) / Fold change /veh MBOAT4 (11741988_at) / RFU 11764193_at / Fold change /veh 11764193_at / RFU TMEM53 (11763286_at) / Fold change /veh TMEM53 (11763286_at) / RFU MAGEB2 (11727129_at) / Fold change /veh MAGEB2 (11727129_at) / RFU TMEM200A (11744735_a_at) / Fold change /veh TMEM200A (11744735_a_at) / RFU CCDC152 (11751479_a_at) / Fold change /veh CCDC152 (11751479_a_at) / RFU FAM211A (11726209_a_at) / Fold change /veh FAM211A (11726209_a_at) / RFU RGS16 (11746705_a_at) / Fold change /veh RGS16 (11746705_a_at) / RFU VCAN (11755009_s_at) / Fold change /veh VCAN (11755009_s_at) / RFU RHOB (11743442_s_at) / Fold change /veh RHOB (11743442_s_at) / RFU RGS16 (11720943_a_at) / Fold change /veh RGS16 (11720943_a_at) / RFU RGS16 (11720944_at) / Fold change /veh RGS16 (11720944_at) / RFU, VPS4B / Fold change vs veh, VPS4B / RFU, CREB1 / Fold change vs veh, CREB1 / RFU, DNAJC13 / Fold change vs veh, DNAJC13 / RFU, GNAQ / Fold change vs veh, GNAQ / RFU, CDK5R1 / Fold change vs veh, CDK5R1 / RFU, ZRANB3 / Fold change vs veh, ZRANB3 / RFU, CUL4A / Fold change vs veh, CUL4A / RFU, CCNY / Fold change vs veh, CCNY / RFU, UFL1 / Fold change vs veh, UFL1 / RFU, COG3 / Fold change vs veh, COG3 / RFU, DIAPH2 / Fold change vs veh, DIAPH2 / RFU, SKA2 / Fold change vs veh, SKA2 / RFU, AFF3 / Fold change vs veh, AFF3 / RFU, LMF1 / Fold change vs veh, LMF1 / RFU, IPO11 / Fold change vs veh, IPO11 / RFU, DFFB / Fold change vs veh, DFFB / RFU, FOXP1 / Fold change vs veh, FOXP1 / RFU, CARD8 / Fold change vs veh, CARD8 / RFU, STRN3 / Fold change vs veh, STRN3 / RFU, ADK / Fold change vs veh, ADK / RFU, RASSF2 / Fold change vs veh, RASSF2 / RFU, WIPF1 / Fold change vs veh, WIPF1 / RFU, LARP1B / Fold change vs veh, LARP1B / RFU, RASA1 / Fold change vs veh, RASA1 / RFU, RB1 / Fold change vs veh, RB1 / RFU, PPFIA1 / Fold change vs veh, PPFIA1 / RFU, MAT2A / Fold change vs veh, MAT2A / RFU, CCT5 / Fold change vs veh, CCT5 / RFU, WDR92 / Fold change vs veh, WDR92 / RFU, CUX1 / Fold change vs veh, CUX1 / RFU, TTC7A / Fold change vs veh, TTC7A / RFU, TMEM135 / Fold change vs veh, TMEM135 / RFU, DEPTOR / Fold change vs veh, DEPTOR / RFU, CPM / Fold change vs veh, CPM / RFU, DNAJB6 / Fold change vs veh, DNAJB6 / RFU, CACNA2D3 / Fold change vs veh, CACNA2D3 / RFU, DTX4 / Fold change vs veh, DTX4 / RFU, TFCP2 / Fold change vs veh, TFCP2 / RFU, GMCL1 /// GMCL1P1 / Fold change vs veh, GMCL1 /// GMCL1P1 / RFU, AEBP2 / Fold change vs veh, AEBP2 / RFU, SNHG1 /// SNORD22 /// SNORD25 /// SNORD26 /// SNORD27 /// SNORD28 /// SNORD29 /// SNORD31 / Fold change vs veh, SNHG1 /// SNORD22 /// SNORD25 /// SNORD26 /// SNORD27 /// SNORD28 /// SNORD29 /// SNORD31 / Fold change (Aza/veh), C12orf56 (ProbeSet 11735607_a_at) / Fold change (ACY-1035/veh), C12orf56 (ProbeSet 11735607_a_at) / Fold change (Aza/veh), FGFR1OP (ProbeSet 11751329_s_at) / Fold change (ACY-1035/veh), FGFR1OP (ProbeSet 11751329_s_at) / Fold change (Aza/veh), VPS36 (ProbeSet 11739960_a_at) / Fold change (ACY-1035/veh), VPS36 (ProbeSet 11739960_a_at) / RFU SYPL1 (11715823_x_at) / Fold change /veh SYPL1 (11715823_x_at) / RFU IGFBP7 (11715501_s_at) / Fold change /veh IGFBP7 (11715501_s_at) / RFU REEP3 (11722064_at) / Fold change /veh REEP3 (11722064_at) / RFU IGLL1 (11728026_x_at) / Fold change /veh IGLL1 (11728026_x_at): dose or concentration left out as unconfirmed
Conditions: MV-4-11 cells, 48 hours

Structure (SMILES): Nc1ncn([C@@H]2O[C@H](CO)[C@@H](O)[C@H]2O)c(=O)n1 [azacitidine]
- RFU KIR2DL2 /// KIR2DL4 /// KIR2DL5A /// KIR2DL5B /// KIR2DS1 /// KIR2DS2 /// KIR2DS3 /// KIR2DS4 /// KIR3DL3 /// KIR3DL3 /// KIR3DS1 (11738374_at): 10.60 RFU
